Experimental data as given in ChEMBL document CHEMBL4014263, “Diterpenoids and Lignans from Cephalotaxus fortunei” (J Nat Prod, 2017).

Legend:
[1] = test system: HL-60; assay: Cytotoxicity against human HL60 cells assessed as growth inhibition at 10 uM by MTT assay relative to control; assay type: functional; conditions: read-out: GI
[2] = test system: A549; assay: Cytotoxicity against human A549 cells assessed as growth inhibition at 10 uM by SRB assay relative to control; assay type: functional; conditions: read-out: GI
[3] = test system: HL-60; assay: Cytotoxicity against human HL60 cells by MTT assay; assay type: functional, cell-based
[4] = test system: A549; assay: Cytotoxicity against human A549 cells by SRB assay; assay type: functional, cell-based

Compound | inhibition of growth at 10 µM [1] [%] | inhibition of growth at 10 µM [2] [%] | IC50 [3] [nM] | IC50 [4] [nM]
Cc1cc(=O)cc2c3c1[C@@H](O)[C@@H]1[C@H]4OC(=O)[C@](CC2)([C@H](C)[C@H]4O)[C@H]31 | < 50 | < 50 | – | –
Cc1cc(=O)cc2c3c1C[C@@H]1[C@H]4OC(=O)[C@](CC2)([C@H](C)[C@H]4O)[C@]31O | < 50 | < 50 | – | –
COc1ccc(C[C@@]2(O)C(=O)O[C@@H](c3ccc(OC)c(OC)c3)[C@@H]2CO)cc1OC | < 50 | < 50 | – | –
C[C@@H]1[C@@H](O)[C@@H]2OC(=O)[C@]13CC[C@@H]1C[C@@H](O)C[C@H](C)C4=C1[C@@H]3[C@@H]2C4=O | < 50 | < 50 | – | –
COc1cccc2c1C(=O)c1c(O)c3c(c(O)c1C2=O)C[C@@](O)(C(=O)CO)C[C@@H]3O[C@H]1C[C@H](N)[C@H](O)[C@H](C)O1 [DOXORUBICIN] | – | – | 31 | 124
CC(CO)c1cc2c(cc1O)[C@@]1(C)CC[C@H](O)C(C)(C)[C@@H]1CC2=O (stereo not given in full) | < 50 | < 50 | – | –
C[C@@H]1[C@@H](O)[C@@H]2OC(=O)[C@]13CC[C@@H]1C[C@H](O)C[C@H](C)C4=C1[C@@H]3[C@@H]2C4=O | < 50 | < 50 | – | –
Cc1cc(=O)cc2c3c1C(=O)[C@@H]1[C@H]4OC(=O)[C@](CC2)([C@H](C)[C@H]4O)[C@H]31 | – | – | 770 | 1130
COc1cc(C[C@@]2(O)C(=O)O[C@@H](c3ccc(O)c(OC)c3)[C@@H]2CO)ccc1O | < 50 | < 50 | – | –
COc1cc([C@@H]2Oc3cc(OC)c(OC)cc3[C@H]2CO)ccc1O | < 50 | < 50 | – | –
